We go through 5 substances from US20080176263A1, “Materials and Methods for Efficient and Accurate Detection of Analytes” (University of Florida Research Foundation, Inc., priority 2006, published 2008).

Values joined by “and” are separate entries in the source; they are usually repeats but may differ in a detail not shown here. Equal values may be shown once. Numbered stars: 1 amine (or outer) side, 2 acyl side, 3 side chain; on linkers, the order of the positions; unused ones are H or OH. Square brackets hold non-standard residues; d marks the D form. * marks the point of attachment. Dab(5-FAM) = O=C(NCC[C@H](N[*:1])C(=O)[*:2])c1ccc2c(c1)C(=O)OC21c2ccc(O)cc2Oc2cc(O)ccc21; EDANS = O=S(=O)(O)c1cccc2c(NCCN*)cccc12; DABCYL = DABCYL quencher; GABA = NCCCC(=O)O

Assay [1] relates to MMP-9. Put plainly: 5-FAM FRET peptide assay with pure recombinant MMP-9. It is filed as biochemical. Particulars: pure MMP-9 activity near the threshold of Ladwig et al. On the procedure:
Peptide: Two vials of Anaspec, Inc.'s FRET peptide XV (1646.1 g/mol; 100 pg each; Sequence: QXL™520-y-Abu-Pro-Gln-Gly-Leu-Dab(5-FAM)-Ala-Lys-NH (SEQ ID NO:3)) were reconstituted with 60.7 pL of dimethyl sulfoxide (DMSO) to create a stock solution with a concentration of 1.0 mM. A 2× (50 pM) working solution was generated by diluting the 1.0 mM stock in MMP Assay Buffer 20-fold. Each reaction will be 20 pL at final volume requiring at least 0.5 pL of 1.0 mM stock, 9.5 pL of MMP assay buffer and 10 pL of sample per reaction.
Matrix Metalloprotease 9 (aka Gelatinase B): Recombinant active pure MMP-9 from Calbiochem (Cat# PF024; 83 kDa form) in a concentration of 100 ng/mL was used to create 40 pL working solutions at 2× concentration (4× reactions per concentration).
The protease was ˜30 pL of 10 pg/mL MMP-9 (86 kDa form). The substrate was ˜60 μL of 50 μCM 5-FAM/QXL520 FRET Peptide (Fluorescein based TNO211). So the final protease concentration is ˜3.33 μg/mL with ˜33.3 μM.
After the plate-based validation, the leftover substrate and protease were used to test the system in a microcentrifuge tube. A signal visible with a handheld cyan led flashlight was present within 10 minutes. The signal was visible under normal lighting conditions, but the signal is enhanced with the lights out or with the tube shielded.
Target sequence in this assay (P14780 107-707 limits assumed): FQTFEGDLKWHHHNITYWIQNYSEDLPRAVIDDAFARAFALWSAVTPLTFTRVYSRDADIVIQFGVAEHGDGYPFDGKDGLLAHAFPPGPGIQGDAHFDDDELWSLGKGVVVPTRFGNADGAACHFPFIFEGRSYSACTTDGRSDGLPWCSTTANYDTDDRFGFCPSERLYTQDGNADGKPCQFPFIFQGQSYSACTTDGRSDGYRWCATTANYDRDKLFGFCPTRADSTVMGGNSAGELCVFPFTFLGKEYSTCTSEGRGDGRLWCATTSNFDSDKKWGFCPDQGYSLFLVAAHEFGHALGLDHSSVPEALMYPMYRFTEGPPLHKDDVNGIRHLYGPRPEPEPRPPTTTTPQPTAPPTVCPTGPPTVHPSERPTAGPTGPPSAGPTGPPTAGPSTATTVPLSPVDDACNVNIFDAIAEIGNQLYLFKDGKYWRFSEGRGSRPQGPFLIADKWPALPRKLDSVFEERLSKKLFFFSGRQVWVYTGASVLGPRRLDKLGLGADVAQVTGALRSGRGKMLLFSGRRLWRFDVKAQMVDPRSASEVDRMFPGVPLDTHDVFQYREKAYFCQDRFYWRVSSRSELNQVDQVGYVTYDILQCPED

Assay [2] concerns the target T1, MMP-2 (Homo sapiens, UniProt P08253).
T1 sequence (P08253 110-660): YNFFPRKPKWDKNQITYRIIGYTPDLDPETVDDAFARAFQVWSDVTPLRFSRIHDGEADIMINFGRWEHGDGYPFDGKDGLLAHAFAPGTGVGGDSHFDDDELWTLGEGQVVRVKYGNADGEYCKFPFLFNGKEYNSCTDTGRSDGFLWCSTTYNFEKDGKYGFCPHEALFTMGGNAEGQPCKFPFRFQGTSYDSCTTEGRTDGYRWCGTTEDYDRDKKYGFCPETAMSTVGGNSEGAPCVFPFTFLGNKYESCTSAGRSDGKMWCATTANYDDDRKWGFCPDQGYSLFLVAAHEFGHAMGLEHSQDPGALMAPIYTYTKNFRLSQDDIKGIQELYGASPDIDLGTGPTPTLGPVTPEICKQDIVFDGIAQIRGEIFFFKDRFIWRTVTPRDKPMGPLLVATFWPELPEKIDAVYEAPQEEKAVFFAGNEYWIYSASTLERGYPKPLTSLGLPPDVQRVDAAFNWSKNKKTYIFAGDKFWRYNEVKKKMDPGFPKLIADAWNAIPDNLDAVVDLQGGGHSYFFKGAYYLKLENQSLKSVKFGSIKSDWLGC
Particulars: at 37° C., pH 7.64; cited from earlier work.

Assay [3] relates to MMP-9. The following applies: at 37° C., pH 7.64; cited from earlier work.
Target sequence in this assay (P14780 94-707, species assumed): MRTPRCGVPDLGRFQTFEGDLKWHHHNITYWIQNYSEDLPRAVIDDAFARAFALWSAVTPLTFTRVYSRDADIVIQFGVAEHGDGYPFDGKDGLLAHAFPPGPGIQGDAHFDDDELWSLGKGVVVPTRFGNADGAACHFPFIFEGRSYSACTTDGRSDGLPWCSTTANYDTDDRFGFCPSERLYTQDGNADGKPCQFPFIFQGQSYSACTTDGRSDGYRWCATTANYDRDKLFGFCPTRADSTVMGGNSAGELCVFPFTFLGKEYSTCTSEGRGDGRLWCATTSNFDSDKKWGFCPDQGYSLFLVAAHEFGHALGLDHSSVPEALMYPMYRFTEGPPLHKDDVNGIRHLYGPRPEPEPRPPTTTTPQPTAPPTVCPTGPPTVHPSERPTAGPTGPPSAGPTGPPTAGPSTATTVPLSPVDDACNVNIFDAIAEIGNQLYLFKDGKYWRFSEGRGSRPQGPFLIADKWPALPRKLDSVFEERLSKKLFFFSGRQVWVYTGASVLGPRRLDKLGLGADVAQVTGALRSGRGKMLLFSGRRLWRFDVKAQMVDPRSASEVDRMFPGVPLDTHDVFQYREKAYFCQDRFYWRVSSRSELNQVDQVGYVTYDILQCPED
Assay [4] deals with MMP-3 (Homo sapiens, UniProt P08254). Particulars: at 37° C., pH 7.64; cited from earlier work.
Sequence of MMP-3 (P08254 100-477, species assumed): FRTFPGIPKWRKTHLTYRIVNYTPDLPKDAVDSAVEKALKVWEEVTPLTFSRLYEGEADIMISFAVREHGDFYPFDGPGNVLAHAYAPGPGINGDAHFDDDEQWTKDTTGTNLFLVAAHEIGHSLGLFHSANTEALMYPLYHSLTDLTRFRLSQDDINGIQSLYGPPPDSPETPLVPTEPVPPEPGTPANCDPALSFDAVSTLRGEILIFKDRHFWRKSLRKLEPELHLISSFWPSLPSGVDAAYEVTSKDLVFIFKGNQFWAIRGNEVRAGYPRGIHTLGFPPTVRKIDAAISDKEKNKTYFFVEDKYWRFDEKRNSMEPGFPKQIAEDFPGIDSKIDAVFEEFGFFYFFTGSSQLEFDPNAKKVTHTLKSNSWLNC
For assay [5], the target named is T2, MMP-1 (Homo sapiens, UniProt P03956).
T2 sequence (P03956 100-469): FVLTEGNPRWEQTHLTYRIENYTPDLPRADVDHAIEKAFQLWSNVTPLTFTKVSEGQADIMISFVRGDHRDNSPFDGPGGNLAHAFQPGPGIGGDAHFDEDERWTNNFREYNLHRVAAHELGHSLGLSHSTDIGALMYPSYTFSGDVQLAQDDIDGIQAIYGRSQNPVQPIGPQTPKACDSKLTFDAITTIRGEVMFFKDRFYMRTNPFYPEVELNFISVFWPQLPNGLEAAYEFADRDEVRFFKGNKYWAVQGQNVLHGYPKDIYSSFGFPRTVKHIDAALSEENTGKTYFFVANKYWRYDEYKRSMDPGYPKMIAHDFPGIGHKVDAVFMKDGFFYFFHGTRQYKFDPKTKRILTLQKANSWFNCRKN
Particulars: at 37° C., pH 7.64; cited from earlier work.

Assay [6] deals with substrate TNO211. Put plainly: Study #1: time-to-detection of protease activity, cleavage of substrate TNO211 by fluorescence. Particulars: protease concentrations ≦100 ng/ml. Type of assay: biochemical. Here is the method:
1. Prepare a suitable standard curve diluted in enzyme buffer. Typically, a maximum of 50 ng/ml final protease concentration in the assay is used. Keep on ice until use.
2. Prepare the substrate solution by diluting the Stock Reconstituted Substrate (in DMSO) to 5.56 uM in the desired Assay Buffer (EDTA-free or EDTA-containing) to produce 90 ul of total EDTA-free or EDTA-containing Assay Buffer per well.
3. Pipette 90 ul substrate solution into each well to be assayed.
4. Take an initial fluorescence reading. To minimize interference due to the fluorescence of endogenous proteins in the samples, we routinely use excitation/emission wavelengths of 355/535 nm, respectively.
5. Pipette 10 ul standards, samples, or Enzyme Buffer (BLANK) into each well of the 96-well fluorescence assay plate.
6. Measure the change in fluorescence continuously until the standard range of interest is sufficiently resolved. Protect from light at RT or 37° C. between measurements.
7. Determine the best-fit curve relating the Change in Fluorescence (AF) vs.
[Protease]. […]
One hundred, 10, 1, and 0.1 ng of pronase, MMP-2, MMP-9, and clostridial collagenase were assayed in a total reaction volume of 100 ul for cleavage of substrate TNO211 as detected by fluorescence. The reactions were monitored for approximately one hour after the addition of the proteases.

Assay [7] deals with substrate TNO211. Briefly: Study #3: protease detection sensitivity, visual detection under UV. Type of assay: biochemical. Particulars: within 10 minutes; from 17% and 28% of pronase activity. Here is the method:
To investigate the visual detection limits of pronase, standard curves (1000-0 ng) of the protease were reacted in 50, 100, and 200 uM substrate diluted in the assay buffer. Digital photographs were taken under white light and UV. These observations were compared to those obtained quantitatively using the fluorescence plate reader. The observed detection limits for pronase were used to calculate theoretical detection limits for MMP-2 and MMP-9 (17% and 28% as active as pronase, respectively).

The test system of assay [8] is pronase. Particulars: 23° C., 30 min, 100 tM substrate.
Protocol: The biotinylated fluoreceinated peptide #15 was reconstituted to a concentration of 10 mM in DMSO to serve as a stock solution. […] The 10 mM stock was further diluted to a 1 mM working stock. The final in-reaction concentration of substrate was 100 tM, which was chosen based on visual/fluorescent appearance of the diluted sample.
Three reactions were run, a negative control which contained no protease, a tube which contained 10 tg/mL, and a tube that contained 100 tg/mL.
All three tubes were shaken at room temperature (23° C.) for 30 min, then 30 μL of 500 mM EDTA was added to quench the metalloproteases. Then the reactions were immediately added to 10 kDa cut-off centrifuge filters to physically remove all proteases. This step required two separate filters per sample as the protein content was high enough to “clog” the filter after about half of the volume as filtered. The unfiltered volume was removed from the “clogged” filter and placed into a fresh filter.
Six handee spin columns were prepared in advance by loading 200 tL of the streptavidin agarose suspension (approximately 1:1 bead:buffer) and then centrifuging to remove the buffer. Upon completion of the protease removal step, the filtered volume was placed in a handee spin column loaded with ˜100 tL of a high-capacity streptavidin agarose and the volumes were well mixed by pipetting action. […]

Consider “QXL™520-y-Abu-Pro-Gln-Gly-Leu-Dab(5-FAM)-Ala-Lys-NH ({QXL520-GABA}-PQGL[Dab(5-FAM)]AK-NH2) [Anaspec XV]”, for which the “time to generate a signal” value in assay [1] was not above 10 min.

Consider “DABCYL-GABA-Pro-Gln-Gly-Leu-Glu(EDANS)-Ala-Lys-NH2 ({DABCYL-GABA}-PQGLE(EDANS)AK-NH2) [TNO211]”, for which the kcatKm in assay [2] was 619,000 M^−1s^−1; in assay [3], 206,000 M^−1s^−1; in assay [4], 40,000 M^−1s^−1; in assay [5], 21,000 M^−1s^−1.

Regarding collagenase, the “activity as % of pronase's observed activity” value in assay [6] is reported as 2±1%. “MMP-9: Matrix Metalloprotease 9, protease assayed for cleavage of substrate TNO211”: in assay [6], the “activity as % of pronase's observed activity” value is 28±3% and 28%. For the same substance, the “theoretical detection limit calculated from pronase limit” value in assay [7] is on record as approximately 450 ng. Take “Biotin-aAbu-Pro-Gln-Gly-Leu-Lys(5FAM)-Ala-Lys-NH2 [Peptide #15]”: the cleavage kinetics result in assay [8] is “favorable kinetics”.
